Results on 15 molecules are retold here after patent US20230234936A1, “COMPOUND FOR TARGETING AND DEGRADING PROTEIN, AND PREPARATION METHOD THEREFOR AND USE THEREOF” (SHANGHAI LEADINGTAC PHARMACEUTICAL CO., LTD., priority 2020, published 2023).

Structures are written as SMILES.

The target in this assay is T1, IRAK4 kinase (Homo sapiens, UniProt Q9NWZ3).
T1 sequence (Q9NWZ3 1-460): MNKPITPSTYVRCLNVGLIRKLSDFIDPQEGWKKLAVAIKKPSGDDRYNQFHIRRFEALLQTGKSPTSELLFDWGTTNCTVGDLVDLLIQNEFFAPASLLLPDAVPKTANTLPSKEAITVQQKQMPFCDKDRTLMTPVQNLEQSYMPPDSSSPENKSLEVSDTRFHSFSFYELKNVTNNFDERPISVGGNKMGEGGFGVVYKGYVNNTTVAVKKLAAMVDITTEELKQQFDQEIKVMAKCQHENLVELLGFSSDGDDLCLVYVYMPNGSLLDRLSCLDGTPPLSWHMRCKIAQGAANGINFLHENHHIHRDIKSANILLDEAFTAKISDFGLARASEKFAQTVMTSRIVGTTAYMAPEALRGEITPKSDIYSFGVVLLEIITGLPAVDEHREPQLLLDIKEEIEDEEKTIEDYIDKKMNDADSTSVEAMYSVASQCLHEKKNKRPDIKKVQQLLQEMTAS
Briefly: IRAK4 kinase activity test (KinEASE-STK S1 HTRF kit). The assay is classed as biochemical. The settings on record: 2.5 nM kinase, 1 μM biotinylated polypeptide substrate, 7 μM ATP, 37° C. 120 min. As to the method: KinEASE-STK S1 serine/threonine kinase kit (Cisbio) was used to detect the inhibitory effect of the compound on IRAK4 kinase activity. The specific method was: the compound was dissolved in dimethyl sulfoxide, and then it was diluted with the buffer solution of the kit by equal gradient to make the final concentration range of the tested compound in the reaction system 10000 nM-0.038 nM, then 2.5 nM kinase, 1 μM biotinylated polypeptide substrate and 7 μM adenosine triphosphate (ATP) were added in sequence and incubated at 37° C. for 120 min. Subsequently, anti-phosphorylated serine/threonine antibody coupled with europium element compound and modified XL665 streptavidin were added to the reaction system to terminate the reaction. After incubating at room temperature for 1 h, the fluorescence intensity of each well at the emission wavelength of 620 nm and 665 nm and the excitation wavelength of 337 nm was determined in HTRF mode on the microplate reader EnVision(PerkinElmer), the ratio value was calculated using the formula Ratio=(665 nm/620 nm)×10^4. By comparing with the fluorescence intensity ratio of the control group, the inhibition rate of the compound at each concentration was calculated, and then the IC50 value of the compound was obtained by fitting the nonlinear curve with the logarithmic concentration-inhibition rate by GraphPad Prism 7.

In turn, `COc1cc2nn(C3CCC4(CC3)CCN(CC3CCN(C(=O)c5ccc(Cl)c(N6CCC(=O)NC6=O)c5)CC3)CC4)cc2cc1NC(=O)c1cccc(C(F)(F)F)n1` [Example 57, N-(2-(3-((1-(4-chloro-3-(2,4-dioxotetrahydro-pyrimidin-1 (2H)-yl)benzoyl)piperidin-4-yl)methyl)-3-azaspiro [5.5]undec-9-yl)-6-methoxy-2H-inda-zol-5-yl)-6-(triflu-oromethyl) pyridinecarbox-amide] had an IC50 of 3.8 nM.

Molecule `COc1cc2nn(C3CCN(CCN4CC5(CCN(C(=O)c6ccc(OC)c(N7CCC(=O)NC7=O)c6)CC5)C4)CC3)cc2cc1NC(=O)c1cccc(C(F)(F)F)n1` [Example 15, N-(2-(1-(2-(7-(3-(2,4-dioxo-tetrahydropyrim-idin-1 (2H)-yl)-4-methoxy-benzoyl)-2,7-diazaspiro [3.5]non-2-yl)ethyl)piperidin-4-yl)-6-methoxy-2H-in-dazol-5-yl)-6-(tri-fluoromethyl) pyridinecarbox-amide] showed an IC50 of 6 nM.

Regarding `COc1ccc(C(=O)N2CC3(CCN(CCN4CCC(n5cc6cc(NC(=O)c7cccc(C(F)(F)F)n7)c(C(C)(C)O)cc6n5)CC4)CC3)C2)cc1N1CCC(=O)NC1=O` [Example 13, N-(2-(1-(2-(2-(3-(2,4-dioxotetrahydropyrimidin-1 (2H)-yl)-4-methoxybenzoyl)-2,7-diazaspiro [3.5]non-7-yl)ethyl)piperidin-4-yl)-6-(2-hydroxyprop-2-yl)-2H-indazol-5-yl)-6-(trifluoro-methyl) pyridinecarboxamide], it took 7.9 nM to reach half-maximal inhibition (IC50).

`CN(C[C@H]1CC[C@H](n2cc3cc(NC(=O)c4cccc(C(F)(F)F)n4)c(C(C)(C)O)cc3n2)CC1)C1CCC2(CC1)CCN(C(=O)c1ccc(Cl)c(N3CCC(=O)NC3=O)c1)CC2` [Example 63]: the IC50 was 4.4 nM.

As to `CCOc1ccc(C(=O)N2CCC3(CCC(CCN4CCC(n5cc6cc(NC(=O)c7cccc(C(F)(F)F)n7)c(C(C)(C)O)cc6n5)CC4)CC3)CC2)cc1N1CCC(=O)NC1=O` [Example 24], the IC50 turned out to be 34.6 nM.

As for `COc1cc2nn(C3CCN(CCCCCNC(=O)c4ccc(OC)c(N5CCC(=O)NC5=O)c4)CC3)cc2cc1NC(=O)c1cccc(C(F)(F)F)n1` [Example 4, N-(2-(1-(5-(3-(2,4-dioxotetrahydropyrimidin-1 (2H)-yl)-4-methoxybenzamido)pentyl)piperidin-4-yl)-6-methoxy-2H-indazol-5-yl)-6-(trifluoromethyl) pyridinecarboxamide], the concentration for half-maximal inhibition (IC50) is 12.2 nM.

As to `CC(C)(O)c1cc2nn(C3CCN(CCCC4CCN(C(=O)c5ccc(Cl)c(N6CCC(=O)NC6=O)c5)CC4)CC3)cc2cc1NC(=O)c1cccc(C(F)(F)F)n1` [Example 29], the IC50 was found to be 8.6 nM.

The molecule `COc1cc2nn([C@H]3CC[C@@H](N4CCC5(CCN(C(=O)c6ccc(Cl)c(N7CCC(=O)NC7=O)c6)CC5)CC4)CC3)cc2cc1NC(=O)c1cccc(C(F)(F)F)n1` [Example 59, N-(2-((1s,4s)-4-(9-(4-chloro-3-(2,4-dioxotetrahydro-pyrimidin-1 (2H)-yl)benzoyl)-3,9-diazaspiro[5.5]undec-3-yl)cyclohexyl)-6-methoxy-2H-inda-zol-5-yl)-6-(trifluoro-methyl) pyridinecarbox-amide] yielded an IC50 of 11 nM.

On to `CC(C)(O)c1cc2nn(C3CCN(CCC4CCC5(CC4)CCN(C(=O)c4ccc(OC(F)(F)F)c(N6CCC(=O)NC6=O)c4)CC5)CC3)cc2cc1NC(=O)c1cccc(C(F)(F)F)n1` [Example 37], for which the IC50 amounted to 30.5 nM.

Regarding `COc1cc2nn(C3CCN(CCOCCNC(=O)c4ccc(OC)c(N5CCC(=O)NC5=O)c4)CC3)cc2cc1NC(=O)c1cccc(C(F)(F)F)n1` [Example 5, N-(2-(1-(2-(2-(3-(2,4-dioxotetrahydropyrim-idin-1 (2H)-yl)-4-methoxybenz-amido)ethoxy)ethyl)piperidin-4-yl)-6-me-thoxy-2H-indazol-5-yl)-6-(trifluoromethyl) pyridinecarboxamide], the IC50 is 9.1 nM.

`COc1cc2nn([C@H]3CC[C@H](CN(C)CCC4CCN(C(=O)c5ccc(F)c(C6CCC(=O)NC6=O)c5)CC4)CC3)cc2cc1NC(=O)c1cccc(C(F)(F)F)n1` (stereo partly drawn) [Example 52] returned an IC50 of 9.2 nM.

The molecule `O=C1CCN(c2cc(C(=O)N3CCC4(CCC(CN5CCC(n6cc7cc(NC(=O)c8cccc(C(F)(F)F)n8)c(OC(F)(F)F)cc7n6)CC5)CC4)CC3)ccc2Cl)C(=O)N1` [Example 61, N-(2-(1-((3-(4-chloro-3-(2,4-dioxotetrahydro-pyrimidin-1 (2H)-yl)benzoyl)-3-azaspiro [5.5]undec-9-yl)methyl)piperidin-4-yl)-6-(trifluoromethoxy)-2H-indazol-5-yl)-6-(trifluoro-methyl) pyridinecarbox-amide] yielded an IC50 of 128 nM.

In turn, `COc1cc2nn(C3CCN(CCN4CCN(C(=O)c5ccc(OC)c(N6CCC(=O)NC6=O)c5)CC4)CC3)cc2cc1NC(=O)c1cccc(C(F)(F)F)n1` [Example 14, N-(2-(1-(2-(4-(3-(2,4-dioxotetrahydropyrimidin-1 (2H)-yl)-4-methoxybenzoyl)piperazin-1-yl)ethyl)piperidin-4-yl)-6-methoxy-2H-indazol-5-yl)-6-(trifluoromethyl) pyridinecarboxamide] had an IC50 of 6.9 nM.

For `CC(C)(O)c1cc2nn(C3CCN(CCC4CCC5(CC4)CCN(C(=O)c4ccc(C(F)(F)F)c(N6CCC(=O)NC6=O)c4)CC5)CC3)cc2cc1NC(=O)c1cccc(C(F)(F)F)n1` [Example 38, N-(2-(1-(2-(3-(3-(2,4-dioxotetrahydro-pyrimidin-1 (2H)-yl)-4-(trifluoro-methyl)benzoyl)-3-azaspiro[5.5]undec-9-yl)ethyl)piperidin-4-yl)-6-(2-hydroxyprop-2-yl)-2H-indazol-5-yl)-6-(trifluoro-methyl) pyridinecarbox-amide], the IC50 stood at 34.5 nM.

`COc1cc2nn(C3CCN(CCOCCOCCNC(=O)c4ccc(OC)c(N5CCC(=O)NC5=O)c4)CC3)cc2cc1NC(=O)c1cccc(C(F)(F)F)n1` [Example 8, N-(2-(1-(2-(2-(2-(3-(2,4-dioxotetrahydropyrimidin-1 (2H)-yl)-4-methoxybenz-amido)ethoxy)ethoxy)ethyl)piperidin-4-yl)-6-methoxy-2H-indazol-5-yl)-6-(trifluoro-methyl) pyridin-carboxamide] gave an IC50 of 10.5 nM.
